Measurements reported in EP0028689A1, “Antimycotic agents containing acylated triazolyl-gamma-fluoropinacolyl derivatives, and their preparation” (BAYER AG, priority 1979, dated 1981).

Test system: Candida
Test: Antimicrobial in-vivo activity (oral) in mouse candidosis
Details: mice infected i.v. with Candida cells; 100 mg/kg oral one hour before and seven hours after infection; survivors on day 6 p.i.
Procedure: Versuchsbeschreibung: • Mäuse vom Typ SPF-CF1 wurden intravenös mit 1-2 x 10 logaritmisch wachsenden Candida-Zellen, die in physiologischer Kochsalzlösung suspendiert waren, infiziert. Eine Stunde vor und sieben Stunden nach der Infektion wurden die Tiere mit jeweils 100 mg/kg Körpergewicht der Präparate oral behandelt.
+++++ = sehr gute Wirkung = ≥ 90% Überlebende am 6.Tag p.i. ++++ = gute Wirkung = ≥30% Überlebende am 6.Tag p.i. +++ = Wirkung = ≥60% Überlebende am 6.Tag p.i. ++ = schwache Wirkung = ≥40% Überlebende am 6.Tag p.i. + = Spur Wirkung k.W.= keine Wirkung

`CC(=O)OC(C(Oc1ccc(Cl)cc1C)n1cncn1)C(C)(C)C` (stereo not shown) was tested, and the Wirkung was “k.W”.
